Assay results reported in US7122294B2, “Photoacid generators with perfluorinated multifunctional anions” (3M Innovative Properties Company, priority 2003, dated 2006).
Several values for one entry are separate records, joined by “and”; a condition that tells them apart may be missing. Equal values may be shown once.

Columns and labels:
[1] = Volatility by vacuum distillation from 100% H2SO4; type: physicochemical
Experimental: This example describes an unsuccessful attempt to vacuum distill the difunctional perfluoroorganic disulfonic acid, HO3S(CF2)4SO3H, illustrating the very low volatility of this diacid compared to monofunctional perfluoroalkanesulfonic acids of even higher molecular weight, like C8F17SO3H. The dipotassium salt, KO3S(CF2)4SO3K (40.0 g) and 100% H2SO4 (241 g) were charged to a vacuum distillation apparatus comprising a 250 mL, three-necked flask equipped with a heating mantle, magnetic stirring bar, an insulated short path distillation head and a 100 mL receiver flask. The pot temperature and head temperature were continuously monitored with J-type thermocouple probes. […] The pressure was reduced to 3.6 Torr and the pot temperature raised to 178° C., but still there was no boiling or distillation. The pressure was reduced further and additional heat was applied to the pot to force distillation. Distillate eventually started to collect at a pot temperature of 196° C. and a pressure of 1.75 Torr. A total of 73.3 g of distillate was collected between 184–186° C. (head temperature) before the distillation was terminated. Since this represents 222% of the theoretical HO3S(CF2)4SO3H yield, it was surmised that the distillate was probably mostly sulfuric acid. The presence of significant H2SO4 in the distillate was confirmed by precipitation of BaSO4 upon treatment of an aqueous solution of the distillate with BaCl2.
The remaining pot retains were diluted in about 700 mL of water and treated with 350 mL of tributylamine with stirring. A white solid precipitate presumed to be Bu3NH+−O3S(CF2)4SO3^−Bu3NH^+ formed which was isolated by suction filtration washed with three portions of water and air-dried by suction to yield 44.07 g (66% of theory). […] Thus, even though the molecular weight of this monofunctional acid is 38% greater than that of HO3S(CF2)4SO3H, it is much more volatile and distills at much lower temperature than the difunctional acid. […]

[2] = Photo-DSC/DSC cationic curing activity of PAGs in VEX 5015; design: PDSC Peak Max / PDSC Induction Time: unit not given here
Experimental: (§1) Photo-DSC/DSC: Standard (hermetic) liquid sample pans were used. Sample size was kept in the 6 to 8 mg range. Samples were tested using a Dupont Photo-DSC/DSC instrument (available from DuPont, Wilmington, Del.). The light source was a 200 W Hg lamp that delivered about 60 mw/cm at the sample. Samples were exposed in open pans for 5 minutes to the light source at 30° C. then removed from the instrument, sealed and a standard DSC scan run at 10° C./minute to 300° C. A separate DSC experiment was carried out using a sealed sample pan and no prior light exposure to determine the dark reactivity of these PAGs. Comparison of the DSC traces before and after light exposure enables differentiation between the thermal reactivity of the PAGs (in the dark) and their photochemical activity.
(§2) This example describes photo-DSC/DSC experiments designed to quantitatively compare the relative cationic curing reactivities of PAGs of the present invention containing difunctional fluoroorganic sulfonate anions with related PAGs having identical cations and monofunctional perfluoroalkanesulfonate anions. Relative reactivities were measured in three different cationically polymerizable monomer systems, including two different types of epoxies and one vinyl ether.
(§3) The photo-DSC experiment provides information on the photo-cure speed at 30° C. as measured by the induction time (onset) and time to reach the peak maximum in the curing exotherm. […] The energy released under the curing exotherm is a measure of the extent of cure; larger values mean more cure has taken place during the light exposure. […] Comparison with the DSC traces recorded with no prior light exposure provides a measure of the increase in activity after photoactivation of the PAG.
(§4) General: Stock solutions of three cationically curable monomers were prepared as shown in Table 3 with 0.1% (w/w) isopropylthioxanthone (ITX). Epon 828 is a difunctional glycidyl ether epoxy from Shell, ERL-4221 is a difunctional cycloaliphatic epoxy from Union Carbide and VEX 5015 is a trifunctional vinyl ether from Allied Signal. Because of the low sensitivity of these compositions to room lights, all sample preparation was done with the lab lights on but the hood lights off. All PAGs were formulated at 1.0% by weight in the stock monomer/sensitizer solutions. Into a small aluminum pan was weighed 0.02 g of PAG and 0.04 g of propylene carbonate used to promote dissolution of the PAG in the monomer. The pan was heated briefly on a hot plate set at 100° C. to dissolve the PAG, then 2.0 g the stock monomer/sensitizer solution was added. The solution was briefly heated again on a hot plate set at 100° C. to allow complete mixing of the components, then the solution was allowed to cool to room temperature before using.

[3] = Photo-DSC/DSC cationic curing activity of PAGs in Epon 828; design: PDSC Peak Max / PDSC Induction Time: unit not given here
Experimental: as §1, §2, §3, §4

[4] = Photo-DSC/DSC cationic curing activity of PAGs in ERL-4221; design: PDSC Peak Max / PDSC Induction Time: unit not given here
Experimental: as §1, §2, §3, §4

[5] = Thermal gravimetric analysis (TGA), onset of thermal decomposition; type: physicochemical; details: under nitrogen, ramp 10° C. per minute
Experimental: TGA was performed on a Perkin-Elmer Instruments TGA Model 7 in an open platinum pan. The onset of thermal decomposition, Td, was taken as the thermal decomposition temperature of the photoacid generators and was determined under nitrogen atmosphere using a temperature ramp of 10° C. per minute. The onset temperature was determined by the intersection of tangents to the low temperature portion of the baseline and the first inflection point in the wt % vs. temperature curve.

[6] = Elimination of perfluoroalkylsulfonates from the body; type: in vivo; details: tested in the form of its potassium salt
[7] = VEX 5015, DSC scan after light exposure, two values = two exotherms
[8] = Epon 828, DSC scan after light exposure
[9] = Epon 828, no prior light exposure
[10] = ERL-4221, DSC scan after light exposure
[11] = ERL-4221, no prior light exposure

SMILES: O=S(=O)(O)C(F)(F)C(F)(F)C(F)(F)C(F)(F)C(F)(F)C(F)(F)C(F)(F)C(F)(F)F [C8F17SO3H]
- head temperature of distillation ([1]; 8.00 Torr, from 100% H2SO4): 135–142 °C
- pot temperature of distillation ([1]; 8.00 Torr, from 100% H2SO4): 148–157 °C

SMILES: O=S(=O)(O)C(F)(F)C(F)(F)C(F)(F)C(F)(F)S(=O)(=O)O [HO3S(CF2)4SO3H]
- volatility: outcome of vacuum distillation ([1]; from 100% H2SO4, down to 1.75 Torr, pot temperature up to 196° C.): did not distill

SMILES: CC(C)(C)c1ccc([I+]c2ccc(C(C)(C)C)cc2)cc1.CC(C)(C)c1ccc([I+]c2ccc(C(C)(C)C)cc2)cc1.O=S(=O)([O-])C(F)(F)C(F)(F)C(F)(F)C(F)(F)S(=O)(=O)[O-] [PAG2, [(p-(CH3)3C—C6H4)2I^+]2-O3S(CF2)4SO3—]
- PDSC Energy ([2]; VEX 5015, 1.0% PAG, 0.1% ITX, light exposure 5 min at 30° C.): 220 J/g
- DSC after PDSC Energy ([2]; VEX 5015, DSC scan after light exposure): 31 J/g
- DSC after PDSC Onset Temp [2, 7]: 135 C.°
- DSC after PDSC Peak Max [2, 7]: 158 °C
- PDSC Induction Time ([2]; VEX 5015, light exposure at 30° C.): 1.3
- DSC Only (dark) Onset Temp ([2]; VEX 5015, no prior light exposure, two values = two exotherms): 100, C.° and 160 C.°
- PDSC Peak Max ([2]; VEX 5015, time to peak maximum of curing exotherm at 30° C.): 3.4
- PDSC Energy ([3]; Epon 828, 1.0% PAG, 0.1% ITX, light exposure 5 min at 30° C.): 7 J/g
- DSC after PDSC Onset Temp ([3]; Epon 828, DSC scan 10° C./minute after light exposure): 110 C.°
- DSC after PDSC Energy [3, 8]: 541 J/g
- DSC after PDSC Peak Max [3, 8]: 194 °C
- PDSC Induction Time ([3]; Epon 828, light exposure at 30° C.): 17.1
- DSC Only (dark) Energy [3, 9]: 574 J/g
- DSC Only (dark) Onset Temp [3, 9]: 175 C.°
- DSC Only (dark) Peak Max [3, 9]: 232 °C
- PDSC Peak Max ([3]; Epon 828, time to peak maximum of curing exotherm at 30° C.): 27
- PDSC Energy ([4]; ERL-4221, 1.0% PAG, 0.1% ITX, light exposure 5 min at 30° C.): 10 J/g
- DSC after PDSC Onset Temp ([4]; ERL-4221, DSC scan 10° C./minute after light exposure): 60 C.°
- DSC after PDSC Energy [4, 10]: 538 J/g
- DSC after PDSC Peak Max [4, 10]: 142 °C
- PDSC Induction Time ([4]; ERL-4221, light exposure at 30° C.): 14.8
- DSC Only (dark) Energy [4, 11]: 574 J/g
- DSC Only (dark) Onset Temp [4, 11]: 150 C.°
- DSC Only (dark) Peak Max [4, 11]: 196
- PDSC Peak Max ([4]; ERL-4221, time to peak maximum of curing exotherm at 30° C.): 25
- onset of thermal decomposition (TGA) [5]: 237 °C
- solubility in PGMEA: greater than 4 wt %

SMILES: O=S(=O)(O)C(F)(F)C(F)(F)C(F)(F)C(F)(F)F [perfluorobutylsulfonate]
- elimination from the body [6]: eliminates from the body more effectively than perfluorohexylsulfonate and much more effectively than perfluorooctylsulfonate
